Nine molecules from US20240360165A1, “INHIBITORS OF CYCLIN DEPENDENT KINASE 7 (CDK7)” (Syros Pharmaceuticals, Inc., priority 2016, published 2024) can be followed below.

Each structure is given as a SMILES string.

Holding throughout (type): biochemical
In assay [1] the target is CDK7/Cyclin H/MAT1 complex (Homo sapiens, UniProt P50613). The assay is described as follows: CDK7 inhibition assay (Caliper/LabChip EZ Reader kinase assay). The note with it: Table 1; CDK7/Cyclin H/MAT1 6 nM, ATP 2 mM, 35 min at 27° C. The procedure: (§1) Compounds of the invention were assayed for inhibition of CDK7, CDK9, CDK12, and CDK2 activity at Biortus Biosciences (Jiangyin, Jiangsu Province, P.R. of China) using kinase assays for each CDK developed with a Caliper/LabChip EZ Reader (Perkin Elmer, Waltham, MA).
Chain of CDK7/Cyclin H/MAT1 complex (P50613 whole entry, species assumed): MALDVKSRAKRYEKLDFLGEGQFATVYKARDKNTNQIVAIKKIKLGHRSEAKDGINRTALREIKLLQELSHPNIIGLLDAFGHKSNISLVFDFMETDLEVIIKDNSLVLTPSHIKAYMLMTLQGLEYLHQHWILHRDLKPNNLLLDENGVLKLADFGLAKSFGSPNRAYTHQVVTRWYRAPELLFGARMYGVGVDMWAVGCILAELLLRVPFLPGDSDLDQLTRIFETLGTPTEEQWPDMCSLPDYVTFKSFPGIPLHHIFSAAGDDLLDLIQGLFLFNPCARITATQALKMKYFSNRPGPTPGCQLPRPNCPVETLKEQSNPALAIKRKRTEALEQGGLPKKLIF
Chain of CDK7/Cyclin H/MAT1 complex (P51946 whole entry partner, species assumed): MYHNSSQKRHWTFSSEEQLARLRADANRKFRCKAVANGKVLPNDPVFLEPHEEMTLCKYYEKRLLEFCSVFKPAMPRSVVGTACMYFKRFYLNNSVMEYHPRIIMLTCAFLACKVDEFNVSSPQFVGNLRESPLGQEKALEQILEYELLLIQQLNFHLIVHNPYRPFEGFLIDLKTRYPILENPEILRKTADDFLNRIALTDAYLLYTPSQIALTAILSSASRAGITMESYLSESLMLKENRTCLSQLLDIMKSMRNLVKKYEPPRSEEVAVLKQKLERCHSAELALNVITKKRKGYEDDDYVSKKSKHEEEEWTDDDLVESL
Chain of CDK7/Cyclin H/MAT1 complex (P51948 whole entry partner, species assumed): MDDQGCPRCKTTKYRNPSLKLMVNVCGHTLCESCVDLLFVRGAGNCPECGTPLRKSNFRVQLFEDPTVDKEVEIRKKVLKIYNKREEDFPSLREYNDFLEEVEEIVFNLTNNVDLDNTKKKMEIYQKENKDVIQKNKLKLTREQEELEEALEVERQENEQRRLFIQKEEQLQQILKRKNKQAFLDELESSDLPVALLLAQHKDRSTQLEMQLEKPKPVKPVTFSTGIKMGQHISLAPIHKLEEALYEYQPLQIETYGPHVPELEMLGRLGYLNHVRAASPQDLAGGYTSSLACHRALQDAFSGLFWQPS
(§2) Furthermore, the CDK9 inhibition assay used CDK9/Cyclin T1 complex (8 nM) and “5-FAM-CDK9tide” peptide substrate (2 μM, synthesized fluorophore-labeled peptide with the following sequence: 5-FAM-GSRTPMY-NH2 where 5-FAM is defined above and NH2 signifies a C-terminal amide) with 10 mM MgCl2 in the buffer composition listed above. […] Additionally, the CDK2 inhibition assay used CDK2/Cyclin E1 complex (0.5 nM) and “5-FAM-CDK7tide” ([…]) as defined above, with 2 mM MgCl2 in the buffer composition listed above.

Assay [2] has as its target CDK2/Cyclin E1 complex (Homo sapiens, UniProt P24941). The assay is described as follows: CDK2 inhibition assay (Caliper/LabChip EZ Reader kinase assay). The settings on record: Table 1; CDK2/Cyclin E1 0.5 nM, ATP 2 mM, 35 min at 27° C. The procedure:
as §1, §2

Assay [3] concerns the target CDK9/Cyclin T1 complex (Homo sapiens, UniProt P50750). The assay is described as follows: CDK9 inhibition assay (Caliper/LabChip EZ Reader kinase assay). The note with it: Table 1; CDK9/Cyclin T1 8 nM, ATP 2 mM, 15 min at 27° C. As to the method: as §1, §2
For assay [4], the target named is T1, CDK12 (aa686-1082)/Cyclin K complex (Homo sapiens, UniProt Q9NYV4).
T1 construct: CDK12 (aa686-1082)/Cyclin K complex
T1 sequence (Q9NYV4 686-1082, species assumed): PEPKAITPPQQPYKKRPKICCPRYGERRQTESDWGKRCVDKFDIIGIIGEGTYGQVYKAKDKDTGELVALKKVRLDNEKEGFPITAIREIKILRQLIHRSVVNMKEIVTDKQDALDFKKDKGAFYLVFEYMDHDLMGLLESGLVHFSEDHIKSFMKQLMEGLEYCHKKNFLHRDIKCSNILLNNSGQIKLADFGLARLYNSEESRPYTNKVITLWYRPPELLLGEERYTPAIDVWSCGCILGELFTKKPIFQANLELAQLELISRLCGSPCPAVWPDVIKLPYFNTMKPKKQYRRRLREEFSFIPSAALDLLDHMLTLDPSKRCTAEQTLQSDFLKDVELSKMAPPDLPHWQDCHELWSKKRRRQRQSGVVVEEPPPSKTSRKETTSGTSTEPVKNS
T1 sequence (O75909 whole entry partner, species assumed, the tested form may be a part): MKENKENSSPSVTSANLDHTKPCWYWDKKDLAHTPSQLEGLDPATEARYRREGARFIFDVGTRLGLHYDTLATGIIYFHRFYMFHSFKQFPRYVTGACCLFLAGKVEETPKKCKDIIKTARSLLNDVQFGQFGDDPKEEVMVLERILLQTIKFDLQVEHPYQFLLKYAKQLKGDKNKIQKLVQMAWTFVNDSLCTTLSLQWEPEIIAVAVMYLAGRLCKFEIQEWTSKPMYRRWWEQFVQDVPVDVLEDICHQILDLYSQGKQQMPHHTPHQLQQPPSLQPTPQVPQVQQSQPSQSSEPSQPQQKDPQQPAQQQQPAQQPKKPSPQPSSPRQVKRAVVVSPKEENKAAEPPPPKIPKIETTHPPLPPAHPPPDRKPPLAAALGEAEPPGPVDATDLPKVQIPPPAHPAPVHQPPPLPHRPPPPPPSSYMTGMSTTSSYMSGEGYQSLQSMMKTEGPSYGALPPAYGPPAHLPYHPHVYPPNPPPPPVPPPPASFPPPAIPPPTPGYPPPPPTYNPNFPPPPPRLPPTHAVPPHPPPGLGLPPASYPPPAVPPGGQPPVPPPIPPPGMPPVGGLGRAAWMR
The assay is described as follows: CDK12 inhibition assay (Caliper/LabChip EZ Reader kinase assay). The note with it: Table 1; CDK12 (aa686-1082)/Cyclin K 50 nM, ATP 2 mM, 3 hr at 27° C. As to the method:
as §1, §2

Chain of CDK9/Cyclin T1 complex (P50750 whole entry, species assumed, the tested form may be a part): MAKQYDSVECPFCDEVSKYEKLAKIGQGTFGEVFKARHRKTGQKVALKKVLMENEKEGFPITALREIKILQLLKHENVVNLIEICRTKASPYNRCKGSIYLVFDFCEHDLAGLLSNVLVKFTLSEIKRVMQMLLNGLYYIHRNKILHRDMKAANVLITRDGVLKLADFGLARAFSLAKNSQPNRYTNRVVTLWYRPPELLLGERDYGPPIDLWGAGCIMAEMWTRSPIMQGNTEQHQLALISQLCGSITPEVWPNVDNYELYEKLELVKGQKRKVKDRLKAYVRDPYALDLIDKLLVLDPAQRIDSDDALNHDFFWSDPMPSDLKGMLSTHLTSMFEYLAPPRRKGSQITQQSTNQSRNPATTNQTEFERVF
Chain of CDK9/Cyclin T1 complex (O60563 whole entry partner, species assumed, the tested form may be a part): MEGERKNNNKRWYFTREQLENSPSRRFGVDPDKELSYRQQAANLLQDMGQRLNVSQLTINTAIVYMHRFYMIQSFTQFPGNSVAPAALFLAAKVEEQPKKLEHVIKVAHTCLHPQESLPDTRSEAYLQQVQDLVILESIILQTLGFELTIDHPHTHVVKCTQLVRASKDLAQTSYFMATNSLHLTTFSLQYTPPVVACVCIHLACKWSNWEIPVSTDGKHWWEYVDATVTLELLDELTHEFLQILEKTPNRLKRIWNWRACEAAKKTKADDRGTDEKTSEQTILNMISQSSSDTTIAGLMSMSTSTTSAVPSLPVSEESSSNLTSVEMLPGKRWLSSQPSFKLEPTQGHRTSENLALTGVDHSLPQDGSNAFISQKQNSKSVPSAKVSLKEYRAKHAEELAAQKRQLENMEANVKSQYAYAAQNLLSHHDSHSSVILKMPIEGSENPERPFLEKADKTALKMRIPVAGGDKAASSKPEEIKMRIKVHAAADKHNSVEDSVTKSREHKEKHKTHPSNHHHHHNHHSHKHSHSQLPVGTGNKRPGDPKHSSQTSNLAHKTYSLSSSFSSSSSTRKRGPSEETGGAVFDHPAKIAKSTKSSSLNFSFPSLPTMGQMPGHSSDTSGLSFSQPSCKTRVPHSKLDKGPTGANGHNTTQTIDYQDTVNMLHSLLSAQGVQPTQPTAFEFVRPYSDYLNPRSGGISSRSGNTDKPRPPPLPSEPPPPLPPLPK

As a reminder, the IC50 is the concentration needed to halve the response being measured. Lower therefore signals inhibition by little substance. For the molecule `CC1(O)CCC(c2cccc3c(-c4nc(N[C@H]5CCCNC5)ncc4C(F)(F)F)c[nH]c23)CC1` (single isomer, unassigned) [Compound 192], the IC50 in assay [1] was in the range of 20 to 200 nM; in assay [2], 200 to 5000 nM; in assay [3], 200 to 5000 nM; in assay [4] it was 200 to 5000 nM.

Take `CC1(O)CCC(c2cccc3c(-c4nc(N[C@H]5CCCNC5)ncc4C(F)(F)F)c[nH]c23)CC1` (single isomer, unassigned) [Compound 193]: the IC50 in assay [1] fell in the range of 20 to 200 nM; in assay [2], 200 to 5000 nM; in assay [3] it was 200 to 5000 nM; in assay [4] it was 200 to 5000 nM.

Take `C[C@]1(O)CCN(C(=O)c2ccc3c(-c4nc(N[C@H]5CCCNC5)ncc4C(F)(F)F)c[nH]c3c2)C1` [Compound 220, [(3S)-3-hydroxy-3-methyl-pyrrolidin-1-yl]-[3-[2-[[(3S)-3-piperidyl]amino]-5-(trifluoromethyl)pyrimidin-4-yl]-1Hindol-6-yl]methanone]: the IC50 was less than 20 nM in assay [1], more than 5000 nM in assay [2], more than 5000 nM in assay [3] and 200 to 5000 nM in assay [4].

For the molecule `FC(F)(F)c1cnc(N[C@H]2CCC3(CCCCC3)NC2)nc1-c1c[nH]c2ccccc12` [Compound 240], the IC50 in assay [1] lay within 20 to 200 nM; in assay [2] it was 200 to 5000 nM; in assay [3], 200 to 5000 nM; in assay [4], 200 to 5000 nM.

Turning to `FC(F)(F)c1cnc(N[C@H]2CCCNC2)nc1-c1c[nH]c2cc(-n3ccnc3)ccc12` [Compound 248, 4-(6-imidazol-1-yl-1H-indol-3-yl)-N-[(3S)-3-piperidyl]-5-(trifluoromethyl) pyrimidin-2-amine], the IC50 in assay [1] is less than 20 nM; in assay [2], 200 to 5000 nM; in assay [3], 200 to 5000 nM; in assay [4] it was 200 to 5000 nM.

As for `CCC(=O)N[C@H]1CNC[C@@H](Nc2ncc(C(F)(F)F)c(-c3c[nH]c4c(S(C)(=O)=O)cccc34)n2)C1` [Compound 254, N-[(3R,5S)-5-[[4-(7-methylsulfonyl-1H-indol-3-yl)-5-(trifluoromethyl)pyrimidin-2-yl]amino]-3-piperidyl]propanamide], the IC50 in assay [1] was 200 to 5000 nM; in assay [2], more than 5000 nM; in assay [3], more than 5000 nM; in assay [4], more than 5000 nM.

`CCc1cnc(N[C@H]2CCCNC2)nc1-c1c[nH]c2ncc(F)cc12` [Compound 270, (S)-5-ethyl-4-(5-fluoro-1H-pyrrolo[2,3-b]pyridin-3-yl)-N-(piperidin-3-yl)pyrimidin-2-amine]: the IC50 in assay [1] is less than 20 nM; in assay [2], 200 to 5000 nM; in assay [3] it was 200 to 5000 nM; in assay [4] it was 200 to 5000 nM.

As to `CCc1cnc(N[C@H]2CCCNC2)nc1-c1c[nH]c2c(S(=O)(=O)O)cccc12` [Compound 362, 3-[5-ethyl-2-[[(3S)-3-piperidyl]amino]pyrimidin-4-yl]-1H-indole-7-sulfonic acid], the concentration for half-maximal inhibition (IC50) in assay [1] is 20 to 200 nM; in assay [2] it was more than 5000 nM; in assay [3] it was more than 5000 nM; in assay [4] it was more than 5000 nM.

Regarding `CCc1cnc(N[C@H]2CCCNC2)nc1-c1c[nH]c2c(S(=O)O)cccc12` [Compound 363, 3-[5-ethyl-2-[[(3S)-3-piperidyl]amino]pyrimidin-4-yl]-1H-indole-7-sulfinic acid], the IC50 in assay [1] was 20 to 200 nM; in assay [2], more than 5000 nM; in assay [3], more than 5000 nM; in assay [4] it was more than 5000 nM.
